Results as given in patent US10722523B2, “Chemoimmunotherapy for epithelial cancer” (THE REGENTS OF THE UNIVERSITY OF CALIFORNIA, priority 2015, dated 2020).

Key:
TRAMP prostate tumors = experiment: TRAMP spontaneous prostate cancer model, weekly low dose oxaliplatin; type: in vivo, mouse; conditions: for prostate tumor regression 30 days after lymphocyte transfer: TRAMP
Text: (§1) All TRAMP mice, their derivatives and s.c. Myc-Cap transplantation were in the FVB genetic background and their basic immune parameters are shown in FIG. 15a-m. For s.c. TRAMP-C2 tumors, C57BL/6 mice were used. In both s.c. tumors, 2-3×10^6 cells/mouse were transplanted. More detailed information is as follows.
C57BL/6 and FVB control mice were purchased from Charles River Laboratories and CD45.1 mice^1 were purchased from Jackson Laboratory, and all were bred at the University of California San Diego (UCSD) animal facility. C57BL/6-Tg(TRAMP)8247Ng/J (TRAMP mice)^2 were backcrossed to the FVB strain for more than 10 generations. The median survival of TRAMP-FVB mice was 23 weeks compared to 52 weeks for TRAMP-C57BL/6 mice. TRAMP mice were crossed with B cell-deficient (Jh^−/−) mice^3, CTL-deficient (Cd8a^−/−) mice^4 or Rag1^−/− mice, which lack both B and T cells^5, all in the FVB-background. OT-I mice were obtained from Taconic^6. Tgfbr2^F/F (FVB-background) mice were obtained from Dr. Hal Moses at Vanderbilt University^7. Tcrb^−/−, Cd19-Cre, Il10^−/− and CD45.1 mice were purchased from the Jackson Laboratory. IgA gene-deficient (Iga^−/−) mice^8 were obtained from Baylor College of Medicine. Pdl1/2^−/− mice were obtained from Genentech (San Francisco, Calif.). Cd19-Cre and Iga^−/− mice were backcrossed to the FVB strain for more than 10 generations. All mice were maintained in filter-topped cages on autoclaved food and water at the UCSD animal facility and all experiments were performed in accordance with UCSD and NIH guidelines and regulations.
(§2) Mouse treatment studies were “matched design control trials.” Accordingly, mice were randomly chosen and paired based on sex (male), age (FIG. 6a) and tumor size. For transplanted tumor models, tumor size was defined by the median tumor volume (e.g. 400 mm^3, for late treatments, FIG. 6a,f). For TRAMP transgenic tumor models, treatment decisions were made based on age and mice were randomly chosen including a control littermate. An identification code was assigned to each tumor-bearing mouse both in the transplanted and transgenic models, and the investigators were blinded to treatment allocation at the time of tumor volume measurement, autopsy and analysis.
Anti-PD-L1 antibody was i.v. injected at 10 mg/kg once, followed by 5 mg/kg bi-weekly. Mice were treated for three weeks for a total of 7 doses/animal.

Myc-Cap (MC) cells = experiment: Cell death and autophagy of Myc-Cap cells in vitro (Annexin V/PI, LC3A flow cytometry); type: cell-based, mouse
Text: (§3) All results are means±s.e.m.
For adoptive T cell transfer (ATCT) CD8^+ T cells were isolated from single cell suspensions, prepared from spleens and lymph nodes as described above, using CD8α-specific microbeads and MACS-columns (both Miltenyi Biotec GmbH, Bergisch Gladbach, Germany), and 5×10^6 CD8^+ T cells were transferred intraperitoneally (i.p.; FIG. 14a-j). For adoptive B cell transfer (ABCT), B cells (B220^+/CD19^+) were isolated from single cell suspensions prepared from spleens using CD19- and B220-specific microbeads and MACS-columns, and 5×10^6 B cells were transferred i.p. (FIG. 4g-h, FIG. 12n,o). For adoptive splenocytes transfer (ACT), single cell suspensions prepared from spleens were transferred i.p., with one total spleen injected per mouse. Labelling with 5-(and 6-) carboxyfluorescein diacetate succinimidyl ester (CFSE; Molecular Probes, Eugene, Oreg.) was done according to manufacturer's protocol. 5×10^6 CD8^+ T cells or 7×10^6 B cells were transferred (equal to one spleen per mouse; FIG. 5a-i and FIG. 14k-q). For combined adoptive B and T cell transfer (FIG. 5j-1, FIG. 14r-t), T cells were isolated from WT-FVB mice immunized with a Myc-Cap cell lysate as previously described^10. […] The extent of cell death was determined by flow cytometry, showing that more than 90% of cells were positive for Annexin V and PI. The dead cells were injected subcutaneously (s.c.) into WT-FVB mice. Seven days later, T cells were isolated from single cell suspensions of spleen and LN using a Pan T cell isolation Kit (Miltenyi Biotec). B cells were isolated from spleens of naïve FVB-WT or FVB-Tgfbr2^ΔB mice using a Pan B cell isolation kit (Miltenyi Biotec). MC-tumor bearing Rag1^−/− mice received 5×10^6 T cells with or without 5×10^6 B cells (98% pure) from WT or Tgfbr2^ΔB mice. Purity was analyzed on a Beckman Coulter Cyan ADP flow cytometer and was always >98%.

[1] = system: tumor-infiltrating B cells and CD8+ T cells; experiment: Flow cytometry / Q-RT-PCR of tumor-infiltrating lymphocytes in TRAMP and MC tumors; type: in vivo, mouse
Protocol: For lymphocytes isolated from spleen and lymph nodes, standard protocols using filters have been used. Lymphocytes were isolated from human blood using Ficoll-Paque PLUS (GE Healthcare Life Science) according to manufacturer's recommendations. For lymphocyte isolation from tumors (mouse and human), tumors were cut into small pieces and incubated in dissociation solution (RPMI medium supplemented with 5% FBS, collagenase type I (200 U/ml), collagenase type IV (200 U/ml), and DNase I (100 μg/ml) for 30 min at 37° C. After incubation, cell suspensions were passed through a 50 μm cell strainer and washed twice. For large tumors (≥0.7 g), hematopoietic cells were pre-enriched using density gradient centrifugation (Percoll or Ficoll), and red blood cells were lysed (RBC Lysis buffer, multi-species; eBioscience). For blocking of Fc-mediated interactions, mouse cells were pre-incubated with 0.5-1 μg of purified anti-mouse CD16/CD32 (93) per 100 μl and human cells were incubated with FcR blocking reagent (Miltenyi Biotec). Isolated cells were stained with labeled antibodies in PBS with 2% FCS and 2 mM EDTA or cell staining buffer (Biolegend). Dead cells were excluded based on staining with Live/Dead fixable dye (eBioscience). For intracellular cytokine staining, cells were restimulated (Myc-Cap cell lysate, PMA/ionomycin or PMA/ionomycin/LPS, as indicated) in the presence of a protein transport inhibitor cocktail containing Brefeldin A and Monensin (eBioscience), as indicated. For CD107, a staining antibody was added to the culture during the stimulation. After 5 hrs, cells were fixed and permeabilized with BD™ Cytofix/Cytoperm reagent for cytokine staining. BD™ transcription factor buffer was used for Foxp3 and T-bet staining and BD™ Phosflow was used for p-SMAD2/3 and p-STAT staining (BD Biosciences) according to manufacturer's recommendations. After fixation/permeabilization, cells were stained with labeled antibodies of interest. Moreover, Il10 and β-actin mRNA expression were analyzed on single cell level by flow cytometry in combination with CD45, IgA and IL-10 protein staining, using FlowRNA II Assay kit (Affymetrix eBioscience) according to manufacturer's protocols^9. Cells were analyzed on a Beckman Coulter Cyan ADP flow cytometer. Data were analyzed using FlowJo software (Treestar). Immune cell analysis of tumor-free mice of different genetic backgrounds (C57BL/6 and FVB) and different genetic ablations are shown in FIG. 15a-m.
Total RNA was extracted using an RNeasy Plus kit (Qiagen). RNA was reverse transcribed using an IScript kit (Biorad). Q-RT-PCR was performed using Ssofast EvaGreen supermix (Biorad) on a Biorad CFX96 machine. Primer sequences are listed below and generally were obtained from the NIH qPrimerDepot (http://mouseprimerdepot.nci.nih.gov). The relative expression levels of target genes were measured in triplicates and normalized against the level of RPL32 expression. Fold-difference (as relative mRNA expression) was calculated by the comparative CT method (2^(Ct(RPI,32-gene or interest))).

serum IgA, IgG = experiment: Serum IgA and IgG ELISA in tumor-bearing mice; type: in vivo, mouse; conditions: TRAMP and MC-tumor models, oxaliplatin alone
Protocol: Anti-SV40 Tag immunoglobulin ELISA was performed as previously described^33. IgA and IgG ELISA kits were purchased from eBioscience, and used according to manufacturer's protocols. Tumoral single cell suspension has been prepared as described above in the flow cytometry section, and was washed 2-3 times with 1×PBS/2mMEDTA/2% FCS, to remove soluble IgA. Thereafter, about 3×10^6 cells/24-well were plated in either 10% FCS/DMEM or Hybridoma medium (Life Technology). After 24 hrs, the supernatants were analysed for IgA content. Media without cells were used as controls.

Myc-Cap (MC) tumors = experiment: s.c. Myc-Cap (MC) prostate tumor model; type: in vivo, mouse
Text: as §1, §2
2×10^6 Myc-Cap^11 or 3×10^6 TRAMP-C2^12 cells (purchased from ATCC) were s.c. injected into the right flank. Tumors were measured every 2-3 days using a caliper. Tumor volumes were calculated as width^2×length/2.
B cells were depleted as previously described^13. Mice were weekly injected (i.p.) with a mixture of monoclonal antibodies, each at 150 μg/mouse: rat anti-mouse CD19 (clone 1D3), rat anti-mouse B220 (clone RA36B2), and mouse anti-mouse CD22 (clone CY34). After 48 hrs, the mice were injected with a secondary antibody (mouse anti-rat kappa chain; GeneTex) at 150 μg/mouse. In addition, mice were injected weekly, but not on the same day, with 250 μg/mouse rat anti-mouse CD20 (Genentech). Rat anti-mouse IgG2a and IgG1 were used as isotype controls. Mice were treated for 3 weeks in total (FIG. 1g; FIG. 7i-p). […]

[2] = IgA production and immune parameters in tumor-free mice; type: in vivo, mouse; conditions: LD, tumor-free WT or Tgfbr2ΔB mice
Protocol: as §3
For lymphocytes isolated from spleen and lymph nodes, standard protocols using filters have been used. Lymphocytes were isolated from human blood using Ficoll-Paque PLUS (GE Healthcare Life Science) according to manufacturer's recommendations. […] Moreover, Il10 and β-actin mRNA expression were analyzed on single cell level by flow cytometry in combination with CD45, IgA and IL-10 protein staining, using FlowRNA II Assay kit (Affymetrix eBioscience) according to manufacturer's protocols^9. Cells were analyzed on a Beckman Coulter Cyan ADP flow cytometer. Data were analyzed using FlowJo software (Treestar). […]
Anti-SV40 Tag immunoglobulin ELISA was performed as previously described^33. […] After 24 hrs, the supernatants were analysed for IgA content. […]

TRAMP-C2 tumors = experiment: s.c. TRAMP-C2 tumor model with adoptive T cell transfer (ATCT); type: in vivo, mouse
Text: Immunogenic TRAMP-C2 cells were s.c. inoculated into WT or Tcrβ^−/− mice. […] Immunogenic TRAMP-C2 cells were s.c. inoculated into WT or Rag1^−/− −×OT-1 mice (no B cells), that harbor CD8^+ T cells specific for chicken ovalbumin which is not expressed by TRAMP-C2 cells. […] All results are means±s.e.m. Mann-Whitney and t tests were used to calculate statistical significance.
For adoptive T cell transfer (ATCT) CD8^+ T cells were isolated from single cell suspensions, prepared from spleens and lymph nodes as described above, using CD8α-specific microbeads and MACS-columns (both Miltenyi Biotec GmbH, Bergisch Gladbach, Germany), and 5×10^6 CD8^+ T cells were transferred intraperitoneally (i.p.; FIG. 14a-j). […] For adoptive splenocytes transfer (ACT), single cell suspensions prepared from spleens were transferred i.p., with one total spleen injected per mouse. Labelling with 5-(and 6-) carboxyfluorescein diacetate succinimidyl ester (CFSE; Molecular Probes, Eugene, Oreg.) was done according to manufacturer's protocol. […] Purity was analyzed on a Beckman Coulter Cyan ADP flow cytometer and was always >98%.

SMILES: O=C1[O][Pt]2([NH][C@@H]3CCCC[C@H]3[NH]2)[O]C1=O [oxaliplatin]
- PC growth, late treatment (TRAMP prostate tumors; B cell-deficient TRAMP, Jh−/− mice): remained oxaliplatin sensitive
- TRAMP mouse survival (TRAMP prostate tumors; LD oxaliplatin weekly, dependent on CTL): enhanced TRAMP mouse survival
- prostate tumor regression 30 days after lymphocyte transfer (TRAMP prostate tumors; Rag1−/− mice receiving T and B cells): led to tumor regression
- prostate tumor regression 30 days after lymphocyte transfer (TRAMP prostate tumors; Rag1−/− mice receiving only T cells): complete tumor regression
- response of ≥0.7 g tumors to late chemotherapy (TRAMP prostate tumors; WT TRAMP mice, 6 mg/kg weekly, late treatment): largely resistant
- response of early (≤0.2 g) TRAMP tumors (TRAMP prostate tumors; early treatment, regardless of B cell status): responded
- apoptotic cell death of MC cells (Annexin V, propidium iodide) (Myc-Cap (MC) cells; 24 hrs, both at 20 µM): induced apoptotic cell death
- stimulation of autophagy (LC3A) (Myc-Cap (MC) cells; MC cells, 24 hrs, 20 µM, compared with cisplatin): more effective in stimulating autophagy
- cells positive for Annexin V and PI (extent of cell death) (Myc-Cap (MC) cells; Myc-Cap cells, oxaliplatin 40 μM, 48 hrs, flow cytometry): more than 90%
- IL-21 expression in tumors ([1]; MC tumors): increased IL-21 expression
- Il10 mRNA expression in tumors ([1]; MC tumors): increased Il10 mRNA expression
- STAT3 phosphorylation in tumoral B cells ([1]; MC tumors): enhanced STAT3 phosphorylation
- proportion of tumoral B cells undergoing TGFβ signaling (p-SMAD2/3, Tgfb1 mRNA) ([1]; MC tumors): increased the proportion of tumoral B cells undergoing TGFβ signaling
- abundance of tumor infiltrating CD8+ and CD4+ cells ([1]; MC tumors in Jh−/− mice, oxaliplatin versus cisplatin): increased the abundance
- induction of Nos2, Arg1, IL-12p35 and IL-12p40 ([1]; MC tumors, WT and Jh−/− mice, no differences between them): induced other immunoregulatory molecules
- induction of Fas-L and PD-L1 on tumoral B cells ([1]; TRAMP and MC tumors): induced Fas ligand (Fas-L) and PD ligand 1 (PD-L1)
- CD8+ cell recruitment into tumors ([1]; TRAMP and TRAMP, Jh−/− mice): stimulated CD8^+ cell recruitment
- abundance of LTα/β-producing B cells ([1]; TRAMP tumors): barely increased
- oxaliplatin-induced IgA+ cells expressing both PD-L1 and IL-10 ([1]; TRAMP tumors): about 40%
- amount of splenic IgA+ cells ([1]; WT mice bearing MC tumors): modestly increased
- tumoral B cells that were CD19+B220lowCD138+ plasma cells ([1]; after 3-4 cycles of oxaliplatin treatment): at least 40%
- plasma cells that expressed IgA ([1]; after 3-4 cycles, depending on the tumor model used): 40-80%
- abundance of IgA+ B cells among B220low cells ([1]; after additional cycles): ~80%
- IgA+ B cells expressing both Fas-L and PD-L1 ([1]; after oxaliplatin): about 50%
- number of tumoral B220+CD19+ B cells ([1]; after oxaliplatin cycles): greatly increased
- IgA+CD19+ plasmocytes containing both IL-10 mRNA and protein ([1]; after oxaliplatin treatment): 50%
- time at which IgA+ B cells became detectable ([1]; after the first oxaliplatin cycle): 48 h
- serum IgA (serum IgA, IgG): increased serum IgA
- serum IgG (serum IgA, IgG): little effect on serum IgG
- response of MC tumors (Myc-Cap (MC) tumors; Cd8a−/− mice): No response
- response of MC tumors to oxaliplatin with IgA ablation (Myc-Cap (MC) tumors; Iga−/− mice versus WT): potentiated the response to oxaliplatin
- regression of MC tumors raised in Jh−/− mice (Myc-Cap (MC) tumors; LD, 6 mg/kg, 3 weekly cycles, tumors 400 mm3): led to regression of MC tumors
- tumor regression and CTL activation after T cell ± B cell transfer (Myc-Cap (MC) tumors; MC tumors in Rag1−/− mice): induced tumor regression and CTL activation only in mice receiving T cells, or T cells+TGFβR2-deficient B cells
- tumor infiltration with CD45+ cells (Myc-Cap (MC) tumors; WT and Jh−/− mice): enhanced tumor infiltration with CD45^+ cells
- response of small MC tumors (≤100 mm3) (Myc-Cap (MC) tumors; WT mice, early treatment): chemotherapy responsive
- response of large MC tumors (≥350-400 mm3) (Myc-Cap (MC) tumors; WT versus Jh−/− mice, late treatment): shrank upon oxaliplatin treatment only in Jh^−/− mice
- caspase 3 activation in tumors (apoptosis) (Myc-Cap (MC) tumors; associated with oxaliplatin responsiveness): enhanced caspase 3 activation
- tumoral DNA damage response (histone H2AX phosphorylation) (Myc-Cap (MC) tumors; regardless of host genotype): similarly activated
- IgA production and other immune parameters [2]: no effect
- TRAMP-C2 tumor rejection, oxaliplatin combined with ATCT (TRAMP-C2 tumors; B cell-containing Tcrβ−/− mice): no tumor rejection took place
- TRAMP-C2 tumor growth, ATCT together with oxaliplatin (TRAMP-C2 tumors; Rag1−/−, OT-1 mice (no B cells)): tumor growth was inhibited
